From patent US20200317813A1, “TREATMENT AND DIAGNOSIS OF NON-PROLIFERATIVE DIABETIC RETINOPATHY” (Johann Wolfgang Goethe-Universitat Frankfurt am Main, priority 2016, published 2020)

What was measured:
sEH = target: T1, sEH (Homo sapiens, UniProt P34913); details: cited from earlier work
T1 sequence (P34913 1-555): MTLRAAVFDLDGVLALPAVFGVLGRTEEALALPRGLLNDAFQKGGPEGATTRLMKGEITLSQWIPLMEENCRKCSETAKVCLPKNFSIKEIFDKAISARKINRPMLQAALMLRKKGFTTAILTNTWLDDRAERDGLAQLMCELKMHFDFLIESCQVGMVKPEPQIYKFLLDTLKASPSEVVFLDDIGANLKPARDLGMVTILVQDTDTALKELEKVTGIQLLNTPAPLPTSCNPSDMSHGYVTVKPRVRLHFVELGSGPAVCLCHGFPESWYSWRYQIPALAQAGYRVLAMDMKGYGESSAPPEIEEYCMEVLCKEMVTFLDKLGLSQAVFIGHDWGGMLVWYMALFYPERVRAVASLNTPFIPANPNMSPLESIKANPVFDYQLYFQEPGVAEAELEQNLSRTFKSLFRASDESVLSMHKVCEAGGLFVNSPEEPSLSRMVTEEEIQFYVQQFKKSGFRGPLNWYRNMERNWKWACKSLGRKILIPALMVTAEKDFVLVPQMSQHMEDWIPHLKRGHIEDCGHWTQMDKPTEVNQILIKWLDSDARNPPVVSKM

human endothelial cells = test: VE-cadherin staining and internalization in cultured endothelial cells; format: cell-based; details: 3 hours; for internalization of VE-cadherin: in the presence of t-AUCB (10 μmol/L), pre-labelled antibody and immunoprecipitation
Procedure: Cells were fixed with 4% PFA for 10 min at room temperature. After washing with PBS samples were blocked and permeabilized with 1% BSA, 5% horse serum, 0.5% Triton X-100 at room temperature for 2 hours or at 4° C. overnight before being exposed to primary antibody (4° C., overnight). After extensive washing and exposure to Alexa Fluor-coupled secondary antibody (1:200, 2 hours, room temperature) samples were mounted in fluorescent mounting medium and analyzed with a confocal microscope; Leica SP8 confocal microscope and LASX software (Wetzlar, Germany) or Carl Zeiss LSM-780 and ZEN software (Jena, Germany) as described^6′^32.
(§1) VE-cadherin internalization was determined as described^40. Endothelial cells were cultured on culture slides (BD, Heidelberg, Germany) coated with crosslinked gelatin until confluent and starved with 2% FCS overnight. Cells were then incubated with antibody against extracellular domain of human VE-cadherin (clone BV6, ALX-803-305 Enzo Life Sciences, Lörrach, Germany) at 4° C. for 1 hour in MCDB131 with 1% BSA medium. Unbound antibody was removed by rinsing cells with ice-cold MCDB131 medium. […] To block the degradation of internalized VE-cadherin chloroquine (300 μmol/L) was be added to the incubation medium. To assess internalized endogenous VE-cadherin cells were washed with ice-cold acid wash buffer (Hanks buffer, pH=2.7, containing 25 mmol/L glycine and 1% BSA) to assess total VE-cadherin cells were rinsed with ice-cold neutral washing buffer (Hanks buffer with 1% BSA, pH=7.4). Cells were fixed with 4% PFA for 15 minutes at 4° C. and then processed for immunofluorescence. […] Samples were imaged with an SP8 confocal microscope (Leica) and internalized particles were quantified using ImageJ (NIH) software.
Confluent cultures of human endothelial cells were incubated with antibodies recognizing the extracellular domains of human VE-cadherin (BV6 antibody) at 4° C. […] Samples were washed with lysis buffer and analyzed by SDS-PAGE.

[1] = system: endothelial cell-pericyte co-cultures; test: Endothelial cell-pericyte co-culture: cadherin expression, lipid rafts, immunoprecipitation; format: cell-based, human; details: for N-cadherin expression in cocultured cells: 19,20-EDP/19,20-DHDP 3 μmol/L, VEGF 20 ng/ml; for N-cadherin expression in cocultured cells / association (co-precipitation) of PS1 with N-cadherin and VE-cadherin / association of p120 catenin with N- or VE-cadherin: 24 hours; for lipid raft association and membrane presentation of N-cadherin: endothelial cell-pericyte cocultures; for association (co-precipitation) of PS1 with N-cadherin and VE-cadherin / association of p120 catenin with N- or VE-cadherin: immunoprecipitation from co-cultures
Procedure: Human umbilical vein endothelial cells were cultured on fibronectin coated dishes until confluent. Then pericytes were seeded on top of the endothelial cells (PC:EC=1:5) and cocultured for a further 3 days. […] Cells were then lysed with HEPES buffer: 25 mmol/L HEPES pH 7.4, 150 mmol/L NaCl, complete protease inhibitor cocktail (Roche), and 1% digitonin (Sigma). Following centrifugation at 17,000 g for 10 minutes, supernatants (1 mg of protein) were pre-cleaned with protein A/G agarose (Pierce) for 30 mins. Supernatants were then incubated with anti-VE-cadherin (1:1000, AF1002 R&D systems, Abingdon, UK) or N-cadherin (1:1000, 33-3900 life technologies, CA, USA) antibodies at 4° C. for 2 hours and then treated with protein A/G agarose for a further 2 hours. Samples were washed with lysis buffer and analyzed by SDS-PAGE.
Samples were separated by SDS-PAGE and subjected to Western blotting as described^41. Membranes were blocked in 3% BSA in PBS, incubated with primary and horseradish peroxidase-conjugated secondary antibodies in blocking solution, and detection was performed with a Lumi-Light plus western blotting substrate (Roche).
Lipid rafts were isolated as described with modifications^42. Briefly, cells were harvested by scraping and homogenized at 4° C. in sodium carbonate (0.5 mol/L, pH11) using a glass homogenizer, followed by sonication. Then, equal amounts of protein were adjusted to a final sucrose concentration of 45% (final volume, 4 mL) and transferred to 12 mL ultracentrifuge tubes. A discontinuous sucrose gradient was then formed by sequentially overlaying 4 mL of 35% and 4 ml, of 5% sucrose. Samples were subjected to ultracentrifugation (35,000 rpm, 4° C. for 20 hours) using a Beckman SW 41 rotor (Krefeld, Germany). After centrifugation, twelve 1 mL fractions were collected using a capillary tube connected to a peristaltic pump, and equal volumes of each faction were analyzed by SDS-PAGE using antibodies against flotillin 1 (1:2000, 610820 BD Biosciences, Heidelberg, Germany), VE-cadherin (1:1000, sc-28644 Santa Cruz, Darmstadt, Germany) and N-cadherin (1:1000, 33-3900 lifetechnologies, CA, USA).

[2] = system: retinas from 7 month old wild-type mice; test: Retinal explants, ex vivo retina whole mount model; format: cell-based, mouse; details: ex vivo organ culture, 4 day period, 5 μmol/L
Procedure: Eyes from 7 months old animals were enucleated and immersed in ice-cold HBSS containing penicillin (100 U/mL) and streptomycin (100 μg/mL). Retinas were carefully dissected under stereomicroscope and divided into four quadrants with four deep radial incisions. The explants were transferred onto tissue culture inserts (0.4 μm pore, Millipore; Cork, Ireland) with the retinal ganglion cell side facing up. The inserts were placed into the wells of a 6-well plate. A serum free retinal explant media (Neurobasal A, Invitrogen) supplemented with 2% B27 (Invitrogen), 1% N2 (Invitrogen), L-glutamine (0.8 mmol/L), penicillin (100 U/mL), and streptomycin (100 μg/mL) were added to the bottle of the wells and 3 μL of media was dropped on top of the retina to keep it moist. […] After 4 days, retinas were fixed and processed as described above.

pericytes [3] = test: N-cadherin internalization assay; format: cell-based, human; details: 3 μmol/L, 3 hours (not shown)
Procedure: as §1, with “immunofluorescence. To assess N-cadherin internalization, pericytes were incubated with an antibody against the extracellular domain of human N-cadherin (clone 8C11, 350802 BioLegend, CA. USA) at 4° C. for 1 hour in DMEM containing 1% BSA.” for “immunofluorescence.”

[4] = system: retinas from wild-type and Ins2Akita mice; test: Retinal growth factor and Notch gene expression in mice treated with sEH inhibitor; format: in vivo, mouse
Procedure: Total RNA from retinas was extracted using an RNeasy kit (QIAGEN, Hilden, Germany), and equal amounts (1 μg) of total RNA was reverse transcribed (Superscript III; Invitrogen). Gene expression levels were detected using SYBR Green (Absolute QPCR SYBR Green Mix; Thermo Fisher Scientifc). The relative expression levels of the different genes studied was calculated using the 2^−ΔΔCt method with the 18S RNA as a reference.

Ins2Akita mice = details: mouse, in vivo
pericytes [5] = test: In vitro pericyte migration on endothelial cell monolayer; format: cell-based, human; details: 3 μmol/L
Procedure: Human umbilical vein endothelial cells were isolated and cultured as described^37, seeded on μ-slides (ibidi, Martinsried, Germany) and grown to confluence. Pericytes were labeled with cell tracker green (Invitrogen) and added to the endothelial cell monolayer. Cells were treated with either solvent (0.03% DMSO), 19,20-EDP (3 μmol/L), 19,20-DHDP (3 μmol/L). Cells were incubated in an IncuCyte imaging system (Essen Bioscience) that took photographs automatically every 15 minutes for 48 hours. Pericyte movement on top of the endothelial cell monolayer were tracked manually and analyzed with Image J (NIH, Bethesda, Md., USA). In some experiments pericytes were treated with small interfering RNA directed against N-cadherin (sc-29403, Santa Cruz). Transfection was performed with lipofectamine 2000 (Invitrogen) following the manufacturer's instructions and a scrambled control siRNA was used as control.

[6] = system: murine brain microvascular endothelial cells; test: Transendothelial electrical resistance (TEER); format: cell-based, mouse; details: 19,20-EDP/19,20-DHDP 3 μmol/L, VEGF 20 ng/ml, 24 hours
Procedure: Impedance measurements were performed using isolated murine brain microvascular endothelial cells with a cellZscope device (nano-Analytics) as described^38. […] Measurements were performed four times in quadruplicate with endothelial cells from four different cell preparations.

γ-secretase = γ-secretase (Homo sapiens, UniProt P49768); details: by redistribution of PS1 out of lipid rafts, retina; cited from earlier work

CCCCCCCCCCCCNC(=O)NC12CC3CC(CC(C3)C1)C2 [ADU, N-Adamantyl-N′-dodecyl urea]
activity on sEH (sEH): particularly high activity

CCC1OC1CC=CCC=CCC=CCC=CCC=CCCC(=O)O (stereo not shown) [19,20-EDP, 19,20 epoxydocosapentaenoic acid]
internalization of VE-cadherin (human endothelial cells): not
N-cadherin expression in cocultured cells [1]: without effect
lipid raft association and membrane presentation of N-cadherin [1]: not
association (co-precipitation) of PS1 with N-cadherin and VE-cadherin [1]: without effect
capillary pericyte loss and pericyte migration [2]: largely ineffective
N-cadherin internalization (pericytes [3]): not

O=C(NC12CC3CC(CC(C3)C1)C2)N[C@H]1CC[C@H](Oc2ccc(C(=O)O)cc2)CC1 (relative stereo) [t-AUCB, trans-4-[4-(3-adamantan-1-ylureido)cyclohexyloxy]-benzoic acid]
Hey1 and Jagged 1 expression [4]: tend to increase
PDFG receptor β levels in retinas [4]: failed to significantly alter
PDGFB expression in retinas [4]: increased
N-cadherin expression in retinas (Ins2Akita mice): largely maintained
co-localization of VE-cadherin and N-cadherin with PS1 in retinas (Ins2Akita mice): maintained
loss of desmin positive cells in retinas (Ins2Akita mice): prevented

19,20-dihydroxydocosapentaenoic acid [19,20-DHDP]
VE-cadherin staining of confluent endothelial cells (human endothelial cells; 3 μmol/L): discontinuous
internalization of VE-cadherin (human endothelial cells): detected
pericyte motility (pericytes [5]): increase
transendothelial electrical resistance [6]: decreased
N-cadherin expression in cocultured cells [1]: decreased
lipid raft association and membrane presentation of N-cadherin [1]: disrupt
association (co-precipitation) of PS1 with N-cadherin and VE-cadherin [1]: attenuated
association of p120 catenin with N- or VE-cadherin [1]: did not influence
capillary pericyte loss and pericyte migration [2]: induced
N-cadherin internalization (pericytes [3]): induce
γ-secretase activity (γ-secretase): inhibit

VEGF
transendothelial electrical resistance [6]: alterations induced by 19,20-DHDP were however less pronounced than those elicited by vascular endothelial cell growth factor
N-cadherin expression in cocultured cells [1]: without effect
association (co-precipitation) of PS1 with N-cadherin and VE-cadherin [1]: attenuated
association of p120 catenin with N- or VE-cadherin [1]: decreased recovery
